Drawing on ChEMBL document CHEMBL5303711, “ECBD screening data for assay EOS300108” (2023), this text covers CC50 for 67 compounds.

Structures are written as SMILES. Structures can show the parent of a compound that is named as a salt. Calls of active or inactive are those of the source. The rule behind the calls is not given here. Where only a bound is given, the exact number is not on record here.

A short description of the data set: Cytotoxicity activity against human HepG2 cells assessed by CellTiter-Glo luminescent cell viability assay. The arrangement: assay stage confirmatory assay, source tissue liver. The conditions noted are these: HepG2 cells, read-out: IC50 relative. The format is toxicity, cell-based. For orientation: In ATP-based viability assays light output follows the ATP content of the culture.

In the case of `Cc1oc2c(c1C(=O)c1ccc(Cl)cc1)C(=O)C(=O)c1ccccc1-2`, the CC50 was 31400 nM (inactive).

With `COc1cccc2c1C(=O)c1c(O)c3c(c(O)c1C2=O)CC(O)(C(=O)CO)CC3OC1CC(N)C(O)C(C)O1` (configuration not stated), the CC50 was 400 nM (active).

`C=C(C)[C@@H]1Cc2c(ccc3c2O[C@H]2COc4cc(OC)c(OC)cc4[C@H]2C3=O)O1`: the CC50 was 300 nM (active).

Turning to `CC1CCC/C=C\C2CC(O)CC2C(O)/C=C\C(=O)O1` (configuration not stated), the CC50 was < 100 nM (active).

As for `Cc1ccc(-c2cccc(CN3[C@@H]4CC[C@H]3[C@H]3CNC[C@H]34)c2)o1`, the CC50 is 8800 nM (active).

`CCOC(=O)CNS(=O)(=O)c1cc(-c2nnc(Nc3cccc(O)c3)c3ccccc23)ccc1C`: the CC50 was 4100 nM (active).

Regarding `CCN(CC)C(=S)SSC(=S)N(CC)CC`, the CC50 is 300 nM (inactive).

In the case of `O=C(c1ccc(F)c(F)c1Nc1ccc(I)cc1F)N1CC(O)(C2CCCCN2)C1` (racemic), the CC50 is < 100 nM (active).

For the compound `O=C1Nc2cc(Br)ccc2/C1=C1/Nc2ccccc2/C1=N\O` [6BIO], the CC50 is 26500 nM (inactive).

Consider `CCc1c2c(nc3ccc(O)cc13)-c1cc3c(c(=O)n1C2)COC(=O)[C@]3(O)CC` [7-ETHYL-10-HYDROXYCAMPTOTHECIN], for which the CC50 was 200 nM (active).

For the compound `Nc1nc2nn[nH]c2c(=O)[nH]1` [8-AZAGUANINE], the CC50 is 7500 nM (active).

Take `CN(C)CC#Cc1ccc(OCCCc2sc(N3CCc4cccc(C(=O)Nc5nc6ccccc6s5)c4C3)nc2C(=O)O)c(F)c1` [A-1155463]: the CC50 was 2300 nM (active).

For `CN(C)CC[C@H](CSc1ccccc1)Nc1ccc(S(=O)(=O)NC(=O)c2ccc(N3CCN(Cc4ccccc4-c4ccc(Cl)cc4)CC3)cc2)cc1[N+](=O)[O-]` [ABT 737], the CC50 is 13200 nM (active).

Take `C=CCn1c(=O)c2cnc(Nc3ccc(N4CCN(C)CC4)cc3)nc2n1-c1cccc(C(C)(C)O)n1` [ADAVOSERTIB]: the CC50 is 4500 nM (active).

With `CCN1CCN(Cc2ccc(-c3cc4c(N[C@H](C)c5ccccc5)ncnc4[nH]3)cc2)CC1` [AEE-788], the CC50 was 4100 nM (active).

On to `CN(C)C/C=C/C(=O)Nc1cc2c(Nc3ccc(F)c(Cl)c3)ncnc2cc1O[C@H]1CCOC1` [AFATINIB DIMALEATE], for which the CC50 is 2300 nM (active).

As for `CC/C(=C(\c1ccc(O)cc1)c1ccc(OCCN(C)C)cc1)c1ccccc1` [AFIMOXIFENE], the CC50 was 3900 nM (active).

On to `CCc1cc2c(cc1N1CCC(N3CCOCC3)CC1)C(C)(C)c1[nH]c3cc(C#N)ccc3c1C2=O` [ALECTINIB], for which the CC50 was 18900 nM (inactive).

On to `CNC(=O)[C@@H](c1ccccc1)N1CCc2cc(OC)c(OC)cc2[C@@H]1CCc1ccc(C(F)(F)F)cc1` [ALMOREXANT], for which the CC50 was 20400 nM (inactive).

In the case of `Cc1nc(NC(=O)N2CCC[C@H]2C(N)=O)sc1-c1ccnc(C(C)(C)C(F)(F)F)c1` [ALPELISIB], the CC50 was 6100 nM (active).

Regarding `O=C(Nc1cc(Oc2cc(F)c(NC(=O)C3(C(=O)Nc4ccc(F)cc4)CC3)cc2F)ccn1)C1CC1` [ALTIRATINIB], the CC50 was 200 nM (active).

As to `Cc1csc(-c2nnc(Nc3ccc(Oc4ncccc4-c4ccnc(N)n4)cc3)c3ccccc23)c1` [AMG-900], the CC50 is 25400 nM (inactive).

Regarding `Nc1nc(N)c2nc(CNc3ccc(C(=O)N[C@@H](CCC(=O)O)C(=O)O)cc3)cnc2n1` [AMINOPTERIN], the CC50 was 100 nM (active).

On to `CCN(CC)Cc1cc(Nc2ccnc3cc(Cl)ccc23)ccc1O` [AMODIAQUINE HYDROCHLORIDE], for which the CC50 was 3000 nM (active).

Consider `COc1cc(NS(C)(=O)=O)ccc1Nc1c2ccccc2nc2ccccc12` [AMSACRINE], for which the CC50 was 2700 nM (active).

For `COc1ccc(C[C@H]2NC[C@H](O)[C@H]2OC(C)=O)cc1` [ANISOMYCIN], the CC50 is 300 nM (active).

As to `Cc1c(CN2CCN(C(=O)[C@H](C)O)CC2)sc2c(N3CCOCC3)nc(-c3cnc(N)nc3)nc12` [APITOLISIB], the CC50 is 1500 nM (active).

Turning to `C[C@@H](O[C@H]1OCCN(Cc2n[nH]c(=O)[nH]2)[C@H]1c1ccc(F)cc1)c1cc(C(F)(F)F)cc(C(F)(F)F)c1` [APREPITANT], the CC50 is 14800 nM (inactive).

On to `NCC(=O)Nc1ccc(-n2nc(C(F)(F)F)cc2-c2ccc3c(ccc4ccccc43)c2)cc1` [AR-12], for which the CC50 was 50000 nM (inactive).

As to `COc1cc(C[C@H]2C(=O)OC[C@@H]2Cc2ccc(OC)c(OC)c2)ccc1O` [ARCTIGENIN], the CC50 was 2600 nM (active).

In the case of `O=C1CCc2ccc(OCCCCN3CCN(c4cccc(Cl)c4Cl)CC3)cc2N1` [ARIPIPRAZOLE], the CC50 is 25600 nM (inactive).

`COc1ccc(CCN2CCC(Nc3nc4ccccc4n3Cc3ccc(F)cc3)CC2)cc1` [ASTEMIZOLE]: the CC50 is 1500 nM (active).

On to `O=C(NC1CCNCC1)c1n[nH]cc1NC(=O)c1c(Cl)cccc1Cl` [AT-7519], for which the CC50 is 200 nM (active).

As to `O=C(Nc1c[nH]nc1-c1nc2cc(CN3CCOCC3)ccc2[nH]1)NC1CC1` [AT-9283], the CC50 was 1200 nM (active).

Turning to `N#Cc1ccc2[nH]c(O)c(-c3ccc(CN4CCOCC4)cn3)c2c1` [AZD-1080], the CC50 is 7300 nM (active).

As for `Cc1cc(Nc2nc(N[C@@H](C)c3ncc(F)cn3)ncc2Cl)n[nH]1` [AZD-1480], the CC50 is 7900 nM (active).

Turning to `Cc1ncc(-c2ccnc(Nc3ccc(S(C)(=O)=O)cc3)n2)n1C(C)C` [AZD-5438], the CC50 is 600 nM (active).

For `NC(=O)Nc1cc(-c2cccc(F)c2)sc1C(=O)N[C@H]1CCCNC1` [AZD-7762], the CC50 is 900 nM (active).

On to `COc1ccc(-c2ccc3c(N4CCOC[C@@H]4C)nc(N4CCOC[C@@H]4C)nc3n2)cc1CO` [AZD-8055], for which the CC50 was 100 nM (active).

As to `CN1CCCC(n2nc(Cc3ccc(Cl)cc3)c3ccccc3c2=O)CC1` (configuration not stated) [AZELASTINE HYDROCHLORIDE], the CC50 is 10000 nM (active).

As to `CCCCc1nc(-c2ccc(OCCCN(CC)CC)cc2)cn1-c1ccc(Oc2ccc(Cl)cc2)cc1` [AZELIRAGON], the CC50 is 1200 nM (active).

Regarding `Cc1ccc(NC(=O)c2ccc(CN3CC[C@H](N(C)C)C3)c(C(F)(F)F)c2)cc1Nc1nccc(-c2cncnc2)n1` [BAFETINIB], the CC50 is 900 nM (active).

With `CC1(C)CC[C@]2(C(=O)O)CC[C@]3(C)[C@H](C(=O)C=C4[C@@]5(C)C=C(C#N)C(=O)C(C)(C)[C@@H]5CC[C@]43C)[C@@H]2C1` [BARDOXOLONE], the CC50 is 3700 nM (active).

With `Nc1nc(Nc2ccc3c(c2)CC[C@@H](N2CCCC2)CC3)nn1-c1cc2c(nn1)-c1ccccc1CCC2` [BEMCENTINIB], the CC50 is 1200 nM (active).

Regarding `COc1ccc2cc3[n+](cc2c1OC)CCc1cc2c(cc1-3)OCO2` [BERBERINE CHLORIDE], the CC50 was 14400 nM (inactive).

Consider `CNCc1ccc(-c2cc(-c3nc(-c4ccc(S(=O)(=O)C(C)C)cc4)cnc3N)on2)cc1` [BERZOSERTIB], for which the CC50 was 2700 nM (active).

Regarding `CC[C@@H]1C(=O)N(C)c2cnc(Nc3ccc(C(=O)NC4CCN(C)CC4)cc3OC)nc2N1C1CCCC1` [BI-2536], the CC50 was 1200 nM (active).

Consider `COc1c(C)cnc(Cn2cnc3c(Cl)nc(N)nc32)c1C` [BIIB021], for which the CC50 is 400 nM (active).

Take `Cn1cnc2c(F)c(Nc3ccc(Br)cc3F)c(C(=O)NOCCO)cc21` [BINIMETINIB]: the CC50 is < 100 nM (active).

As to `Cc1sc2c(c1C)C(c1ccc(Cl)cc1)=N[C@@H](CC(=O)Nc1ccc(O)cc1)c1nnc(C)n1-2` [BIRABRESIB], the CC50 was 1300 nM (active).

For `Oc1c(Cl)cc(Cl)cc1Sc1cc(Cl)cc(Cl)c1O` [BITHIONOL], the CC50 is 14600 nM (inactive).

Consider `CC(C)C[C@H](NC(=O)[C@H](Cc1ccccc1)NC(=O)c1cnccn1)B(O)O` [BORTEZOMIB], for which the CC50 is < 100 nM (active).

Turning to `COc1cc(Nc2c(C#N)cnc3cc(OCCCN4CCN(C)CC4)c(OC)cc23)c(Cl)cc1Cl` [BOSUTINIB], the CC50 is 1800 nM (active).

Consider `O=c1ccc2ccc(OCCCCN3CCN(c4cccc5sccc45)CC3)cc2[nH]1` [BREXPIPRAZOLE], for which the CC50 is 8400 nM (active).

On to `COc1cc(N2CCC(N3CCN(C)CC3)CC2)ccc1Nc1ncc(Cl)c(Nc2ccccc2P(C)(C)=O)n1` [BRIGATINIB], for which the CC50 was 5700 nM (active).

For the compound `C[C@@H]1CN(Cc2ccc(F)cc2)CCN1C(=O)COc1ccc(Cl)cc1NC(N)=O` [BX 471 FREE BASE], the CC50 was 4800 nM (active).

In the case of `O=C(NCCCNc1nc(Nc2cccc(NC(=O)N3CCCC3)c2)ncc1I)c1cccs1` [BX-795], the CC50 was 5200 nM (active).

On to `COc1cc2nccc(Oc3ccc(NC(=O)C4(C(=O)Nc5ccc(F)cc5)CC4)cc3)c2cc1OC` [CABOZANTINIB], for which the CC50 is 9500 nM (active).

Take `O=C(/C=C/c1ccc(O)c(O)c1)OCCc1ccccc1` [CAFFEIC ACID PHENETHYL ESTER]: the CC50 is 4700 nM (active).

As to `CC[C@@]1(O)C(=O)OCc2c1cc1n(c2=O)Cc2cc3ccccc3nc2-1` [CAMPTOTHECIN], the CC50 was 200 nM (active).

`CCOc1nc2cccc(C(=O)OC(C)OC(=O)OC3CCCCC3)c2n1Cc1ccc(-c2ccccc2-c2nnn[nH]2)cc1` (configuration not stated) [CANDESARTAN CILEXETIL]: the CC50 is 10700 nM (active).

Turning to `C=CC(=O)Nc1cc2c(Nc3ccc(F)c(Cl)c3)ncnc2cc1OCCCN1CCOCC1` [CANERTINIB], the CC50 was 50000 nM (inactive).

For the compound `COc1cc(O)cc(O)c1C(=O)/C=C/c1ccccc1` [CARDAMOMIN], the CC50 is 18300 nM (inactive).

Turning to `CN(C)C(=O)N[C@H]1CC[C@H](CCN2CCN(c3cccc(Cl)c3Cl)CC2)CC1` [CARIPRAZINE HYDROCHLORIDE], the CC50 was 14100 nM (active).

For the compound `COc1cc2c(Oc3ccc4[nH]c(C)cc4c3F)ncnc2cc1OCCCN1CCCC1` [CEDIRANIB], the CC50 is 2500 nM (active).

Consider `CNC(=O)c1ccccc1Nc1nc(Nc2ccc3c(c2OC)CCC[C@H](N2CCN(CCO)CC2)C3)ncc1Cl` [CEP-37440], for which the CC50 is 800 nM (active).

`Cc1cc(Nc2ncc(Cl)c(Nc3ccccc3S(=O)(=O)C(C)C)n2)c(OC(C)C)cc1C1CCNCC1` [CERITINIB]: the CC50 was 700 nM (active).
